Like-named read-outs stand apart in the source and are kept apart here.
Biological target: T1, human α7 nicotinic acetylcholine receptor (HEK cell line stably expressing human RIC-3 and human α7) (Homo sapiens, UniProt P36544)
T1 construct: host or cells: HEK cell line (PrecisION hnAChR α7/RIC-3)
Assay: Automated patch-clamp electrophysiology functional assay (Assay A), IonFlux HT, whole-cell population patch
Format: cell-based

[1] = HEK cells expressing human α7/RIC-3, test compound with or without 40 μM acetylcholine, holding potential −60 mV, room temperature, read-out: α7 nAChR Potency
[2] = automated patch-clamp electrophysiology functional assay (Assay A), read-out: α7 nAChR EC50

T1 sequence (P36544 23-502): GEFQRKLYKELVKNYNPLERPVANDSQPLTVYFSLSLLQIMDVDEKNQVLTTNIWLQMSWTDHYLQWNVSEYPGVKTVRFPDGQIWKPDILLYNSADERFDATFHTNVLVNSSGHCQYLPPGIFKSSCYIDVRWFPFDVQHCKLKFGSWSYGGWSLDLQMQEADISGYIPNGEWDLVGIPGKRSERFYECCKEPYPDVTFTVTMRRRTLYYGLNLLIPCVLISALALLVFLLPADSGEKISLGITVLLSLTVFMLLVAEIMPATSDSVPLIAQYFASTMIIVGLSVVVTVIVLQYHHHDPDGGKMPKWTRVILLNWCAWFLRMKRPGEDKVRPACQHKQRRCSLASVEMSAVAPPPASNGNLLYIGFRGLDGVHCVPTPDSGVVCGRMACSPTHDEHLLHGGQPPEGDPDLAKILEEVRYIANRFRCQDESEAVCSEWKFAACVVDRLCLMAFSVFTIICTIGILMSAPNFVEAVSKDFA

Structure (SMILES)	EC50 [1] [µM]	EC50 [2] [µM]
NS(=O)(=O)N1CCC2(CC1)[C@H](c1cc(-c3ccc(F)cc3C(F)(F)F)ns1)C2(F)F [Example G11]	0.1 to 0.5	0.12
COc1ccc(Cl)cc1-c1noc([C@H]2CC23CCN(S(N)(=O)=O)CC3)n1 [Example H1]	5 to 50	–
NS(=O)(=O)N1CCC2(CC1)[C@@H](c1nc(-c3ccc(F)cc3C(F)(F)F)no1)C2(F)F [Example H2]	0.5 to 5	2.9
NS(=O)(=O)N1CCC2(CC1)[C@@H](c1nc(C3CCCCC3)no1)C2(F)F [Example H3]	0.5 to 5	4.5
NS(=O)(=O)N1CCC2(CC1)[C@@H](c1nc(-c3cccc(F)c3)no1)C2(F)F [Example H4]	0.5 to 5	1.2

More lines, now with the values ahead:

EC50 [1] [µM]	EC50 [2] [µM]	Structure (SMILES)
0.5 to 5	–	Cc1ccccc1-c1noc([C@H]2C(F)(F)C23CCN(S(N)(=O)=O)CC3)n1 [Example H5]
0.5 to 5	3.4	Cc1ccccc1-c1nnc([C@H]2C(F)(F)C23CCN(S(N)(=O)=O)CC3)s1 [Example H6]
0.5 to 5	1.4	NS(=O)(=O)N1CCC2(C(F)C1)C(c1nc(-c3ccc(F)cc3C(F)(F)F)no1)C2(F)F (stereo not shown) [Example I15]
0.5 to 5	2.1	NS(=O)(=O)N1CCC2(C(F)C1)C(c1nc(-c3ccc(F)cc3C(F)(F)F)no1)C2(F)F (stereo not shown) [Example I16]
0.5 to 5	–	NS(=O)(=O)N1CCC2(C(F)C1)C(c1nc(-c3ccc(F)cc3C(F)(F)F)no1)C2(F)F (stereo not shown) [Example I17]
0.1 to 0.5	0.32	NS(=O)(=O)N1CCC2(C(F)C1)C(c1nc(-c3ccc(F)cc3C(F)(F)F)no1)C2(F)F (stereo not shown) [Example I18]
